# Patent US20250082674A1, “METHODS OF TREATING COPPER METABOLISM-ASSOCIATED DISEASES OR DISORDERS” (priority 2021, published 2025)
# Like-named read-outs stand apart in the source and are kept apart here.
# Legend:
# ^64Cu in blood = conditions: for Intravenously injected ^64Cu in the blood: Pre (before BC-TTM treatment)
# Method: 15 minutes after intravenous administration of ^64Cu, a dynamic PET-MR scan was performed, followed by additional scans at 1, 2, 6, 20, 48, 54, and 68 hours. Venous blood samples were collected for quantitation of radioactivity at multiple time points.
# patients with WD = tested on: patients with WD
# Source text: All patients who completed the 24-week Study Period were enrolled in a 36-month Extension Period.
# [1] = in vivo
# Source text: (§1) These participants had all intake (food and drink) and output (urine and feces) collected from Day-4 through Day-1 (baseline), from Day 1 through Day 8, and Day 25 through Day 39.
# copper = tested on: copper
# Source text: as §1
substance,measurement,setting,value
Bis-choline tetrathiomolybdate [BC-TTM],Intravenously injected ^64Cu in the blood,^64Cu in blood; 48 hours,0.33
same,Intravenously injected ^64Cu in the blood,^64Cu in blood; 54 hours,0.28
same,Intravenously injected ^64Cu in the blood,^64Cu in blood; 68 hours,0.25
same,64Cu peak in blood and clearance from blood after treatment,"^64Cu in blood; WD patients, FIG. 31",higher peak in the blood and its clearance from blood was delayed
same,64Cu in the blood after versus before treatment,"^64Cu in blood; WD patients, from 1 hour to 48 hours after intravenous 64Cu",significantly more
same,"liver status, Modified Nazer Score",patients with WD; Study 201,stabilized or improved in the majority of patients
same,"neurological status, change from baseline in UWDRS Part III","patients with WD; Study 201, p<0.0001",significant improvements
same,"patient-reported disability, change from baseline in UWDRS Part II","patients with WD; Study 201, p<0.001",significant improvements
same,participants with total cholesterol increase above the ULN,"patients with WD; human, in vivo",7 participants
same,patients with reversible liver (function) test elevations,"patients with WD; human, in vivo",39%
same,tolerability,"patients with WD; human, in vivo",generally well-tolerated
same,participants in whom dose escalation was not carried out due to elevation of liver enzymes,[1],2 participants
same,"Increase from Baseline in Directly Measured NCC, Mean (SD)","copper; Study 204, Day 1, 2 Hours Post-Dose",0.5004 (0.7105) μmol/L
same,"Increase from Baseline in Directly Measured NCC, Mean (SD)","copper; Study 204, Day 1, 4 Hours Post-Dose",1.96 (1.804) μmol/L
same,"Increase from Baseline in Directly Measured NCC, Mean (SD)","copper; Study 204, Day 1, 5 Hours Post-Dose",2.719 (2.534) μmol/L
same,"Increase from Baseline in Directly Measured NCC, Mean (SD)","copper; Study 204, Day 1, 6 Hours Post-Dose",2.324 (2.086) μmol/L
same,"Increase from Baseline in Directly Measured NCC, Mean (SD)","copper; Study 204, Day 1, 8 Hours Post-Dose",2.402 (2.183) μmol/L
same,"Increase from Baseline in Directly Measured NCC, Mean (SD)","copper; Study 204, Day 1, 12 Hours Post-Dose",1.725 (1.575) μmol/L
same,"Increase from Baseline in Directly Measured NCC, Mean (SD)","copper; Study 204, Day 1, 24 Hours Post-Dose",1.063 (1.074) μmol/L
same,"Increase from Baseline in Directly Measured NCC, Mean (SD)","copper; Study 204, Day 4, Pre-Dose",2.677 (1.297) μmol/L
same,"Increase from Baseline in Directly Measured NCC, Mean (SD)","copper; Study 204, Day 5, Pre-Dose",3.144 (1.37) μmol/L
same,"Increase from Baseline in Directly Measured NCC, Mean (SD)","copper; Study 204, Day 6, Pre-Dose",3.574 (1.57) μmol/L
same,"Increase from Baseline in Directly Measured NCC, Mean (SD)","copper; Study 204, Day 7, Pre-Dose",3.7 (1.709) μmol/L
same,"Increase from Baseline in Directly Measured NCC, Mean (SD)","copper; Study 204, Day 25, 2 Hours Post-Dose",2.551 (1.063) μmol/L
same,"Increase from Baseline in Directly Measured NCC, Mean (SD)","copper; Study 204, Day 25, 4 Hours Post-Dose",3.443 (2.008) μmol/L
same,"Increase from Baseline in Directly Measured NCC, Mean (SD)","copper; Study 204, Day 25, 5 Hours Post-Dose",3.38 (2.478) μmol/L
same,"Increase from Baseline in Directly Measured NCC, Mean (SD)","copper; Study 204, Day 25, 6 Hours Post-Dose",4.44 (2.949) μmol/L
same,"Increase from Baseline in Directly Measured NCC, Mean (SD)","copper; Study 204, Day 25, 8 Hours Post-Dose",5.101 (2.491) μmol/L
same,"Increase from Baseline in Directly Measured NCC, Mean (SD)","copper; Study 204, Day 25, 12 Hours Post-Dose",4.917 (2.463) μmol/L
same,"Increase from Baseline in Directly Measured NCC, Mean (SD)","copper; Study 204, Day 25, 24 Hours Post-Dose",3.438 (1.754) μmol/L
same,"Increase from Baseline in Directly Measured NCC, Mean (SD)","copper; Study 204, Day 25, −0.5 Hours",2.121 (0.611) μmol/L
same,"Increase from Baseline in Directly Measured NCC, Mean (SD)","copper; Study 204, Day 27, Pre-Dose",2.767 (1.755) μmol/L
same,"Increase from Baseline in Directly Measured NCC, Mean (SD)","copper; Study 204, Day 28, Pre-Dose",2.327 (1.376) μmol/L
same,"Increase from Baseline in Directly Measured NCC, Mean (SD)","copper; Study 204, Day 29, 2 Hours Post-Dose",2.814 (0.884) μmol/L
same,"Increase from Baseline in Directly Measured NCC, Mean (SD)","copper; Study 204, Day 29, 4 Hours Post-Dose",3.38 (1.494) μmol/L
same,"Increase from Baseline in Directly Measured NCC, Mean (SD)","copper; Study 204, Day 29, 5 Hours Post-Dose",4.078 (1.939) μmol/L
same,"Increase from Baseline in Directly Measured NCC, Mean (SD)","copper; Study 204, Day 29, 6 Hours Post-Dose",4.686 (2.237) μmol/L
same,"Increase from Baseline in Directly Measured NCC, Mean (SD)","copper; Study 204, Day 29, 8 Hours Post-Dose",5.305 (2.311) μmol/L
same,"Increase from Baseline in Directly Measured NCC, Mean (SD)","copper; Study 204, Day 29, 12 Hours Post-Dose",4.749 (2.205) μmol/L
same,"Increase from Baseline in Directly Measured NCC, Mean (SD)","copper; Study 204, Day 29, 24 Hours Post-Dose",3.543 (1.397) μmol/L
same,"Increase from Baseline in Directly Measured NCC, Mean (SD)","copper; Study 204, Day 29, −0.5 Hours",2.662 (1.209) μmol/L
same,"Increase from Baseline in Directly Measured NCC, Mean (SD)","copper; Study 204, Day 31, Pre-Dose",4.121 (2.779) μmol/L
same,"Increase from Baseline in Directly Measured NCC, Mean (SD)","copper; Study 204, Day 32, Pre-Dose (N=1)",8.131 (NA) μmol/L
same,"Increase from Baseline in Directly Measured NCC, Mean (SD)","copper; Study 204, Day 33, Pre-Dose",4.231 (4.114) μmol/L
same,"Increase from Baseline in Directly Measured NCC, Mean (SD)","copper; Study 204, Day 34, Pre-Dose",4.103 (3.872) μmol/L
same,"Increase from Baseline in Directly Measured NCC, Mean (SD)","copper; Study 204, Day 35, Pre-Dose",4.49 (4.526) μmol/L
same,"Increase from Baseline in Directly Measured NCC, Mean (SD)","copper; Study 204, Day 36, Pre-Dose",3.465 (3.016) μmol/L
same,"Increase from Baseline in Directly Measured NCC, Mean (SD)","copper; Study 204, Day 37, Pre-Dose",4.168 (4.069) μmol/L
same,"Increase from Baseline in Directly Measured NCC, Mean (SD)","copper; Study 204, Day 38, Pre-Dose (N=1)",7.643 (NA) μmol/L
same,"Increase from Baseline in Directly Measured NCC, Mean (SD)","copper; Study 204, Day 39, 2 Hours Post-Dose",3.816 (3.943) μmol/L
same,"Increase from Baseline in Directly Measured NCC, Mean (SD)","copper; Study 204, Day 39, 4 Hours Post-Dose",5.578 (5.922) μmol/L
same,"Increase from Baseline in Directly Measured NCC, Mean (SD)","copper; Study 204, Day 39, 5 Hours Post-Dose",6.26 (6.245) μmol/L
same,"Increase from Baseline in Directly Measured NCC, Mean (SD)","copper; Study 204, Day 39, 6 Hours Post-Dose",6.659 (5.704) μmol/L
same,"Increase from Baseline in Directly Measured NCC, Mean (SD)","copper; Study 204, Day 39, 8 Hours Post-Dose",7.32 (6.096) μmol/L
same,"Increase from Baseline in Directly Measured NCC, Mean (SD)","copper; Study 204, Day 39, 12 Hours Post-Dose",6.554 (4.695) μmol/L
same,"Increase from Baseline in Directly Measured NCC, Mean (SD)","copper; Study 204, Day 39, 24 Hours Post-Dose",4.545 (3.677) μmol/L
same,"Increase from Baseline in Directly Measured NCC, Mean (SD)","copper; Study 204, Day 39, −0.5 Hours",3.412 (3.688) μmol/L
